Laboratory results from US20150141460A1, “Anti-inflammatory Compositions” (Cambridge Enterprise Limited, priority 2007, published 2015).
Entries after “also recorded” stand apart in the source; their conditions may differ.

Columns and labels:
[1] = Stability in rat liver microsome preparation; format: in vitro ADME; details: 1 μM, 1 hour at 37° C.
Method: (§1) An obvious concern related to this molecule was the stability of the C—Cl bond. We therefore examined the stability of (VIII) in vitro, both in physiological saline and in a rat liver microsome preparation. Encouragingly, less than 2% of (VIII) had undergone hydrolysis (determined by LC/MS, with dual ion detection of the hydrolysis product (V) and the parent compound (VIII)) even after 24 hours at 37° C. […] As a result, we conclude that compound (VIII) has similar in vitro stability and intrinsic clearance to (I′).

[2] = Pharmacokinetics following a single dose in rat (1 mg/kg iv, 3 mg/kg oral), LC-MS/MS, one-compartment model; format: in vivo; details: for bioavailability: 3 mg/kg oral in 1% CMC vs 1 mg/kg iv, one-compartment model, read-out: F (%) oral bioavailability; for Vd: read-out: Vss (L/kg) volume of distribution; for half-life: intravenous dosing 1 mg/kg, read-out: t1/2 (mins) dominant plasma half-life
Method: Compounds were administered as a single dose (either 1 mg/kg bodyweight in 5% DMSO via the intravenous route or 3 mg/kg in 1% carboxymethylcellulose via the oral route) to three adult rats (using different rats for each compound and each route of administration).
Blood was then sampled at various time points (including just prior to dose administration) out to 24 hrs post dose, and the level of the various compounds was assessed using a validated LC-MS/MS assay. Briefly, 3-5 μl of the deproteinised sample was applied to a Waters Atlantis (C18 20×2.1 mm, 3 μm bead size) reverse phase chromatography column equilibrated in 0.1% formic acid in 95:5 water:actetonitrile. Over 3.5 minutes bound material was gradient eluted reaching 0.1% formic acid in 5:95 water:acetonitrile, followed by a step gradient back to 0.1% formic acid in 95:5 water:acetonitrile. The column eluent was then directed to an Applied Biosystems API 4000/3200 QTrap MS/MS mass spectrometer, with a TurboIonspray™ ion source operating in positive ion mode. The interface temperature was set at 650° C., with a 40 ms dwell time for each MRM transition, monitoring the following ions:
The internal standard in each determination was the related compound (S)-3-(2′,2′-dimethyl-propanoylamino)-caprolactam, which was spiked into the sample prior to deproteinization. The lower limit of quantitation (LLOQ) for this assay was 2.4 ng/ml for each compound except (I′), where it was 38.1 ng/ml.
Following LC-MS/MS analysis of each collected sample, the pharmacokinetic disposition of the compound was modelled using Kinetica software, a well known software package for such applications.
Compounds (VI) and (VII) were subject to pharmacokinetic analysis in rat using exactly the same protocols previous applied for compounds (I) through (V) in example 1.
We therefore subjected (VIII) to pharmacokinetic analysis in rat using exactly the same protocols previous applied for compounds (I′) through (VII) in examples 1 and 7.
The isolated (R)-enantiomer of (I) was therefore synthesised (exactly as described herein for the isolated (S)-enantiomer, but replacing the (S)-ornithine starting material with commercially available (R)-ornithine of high stereochemical purity), and the PK properties of this agent, in rat, was determined using the identical methodology described above (see Examples 1, 7 and 8).

[3] = In vitro stability (hydrolysis of C-Cl bond) in physiological saline, LC/MS; format: physicochemical; details: after 24 hours at 37° C.
Method: as §1

NK2 receptor = biological target: T1, NK2 receptor (Homo sapiens, UniProt P21452); assay: CEREP panel binding, NK2 receptor; details: estimated from single concentration 10 μM; read-out: estimated ED50 for interaction with the NK2 receptor
T1 construct: purchased CEREP (screening panel)
T1 sequence (P21452 1-398): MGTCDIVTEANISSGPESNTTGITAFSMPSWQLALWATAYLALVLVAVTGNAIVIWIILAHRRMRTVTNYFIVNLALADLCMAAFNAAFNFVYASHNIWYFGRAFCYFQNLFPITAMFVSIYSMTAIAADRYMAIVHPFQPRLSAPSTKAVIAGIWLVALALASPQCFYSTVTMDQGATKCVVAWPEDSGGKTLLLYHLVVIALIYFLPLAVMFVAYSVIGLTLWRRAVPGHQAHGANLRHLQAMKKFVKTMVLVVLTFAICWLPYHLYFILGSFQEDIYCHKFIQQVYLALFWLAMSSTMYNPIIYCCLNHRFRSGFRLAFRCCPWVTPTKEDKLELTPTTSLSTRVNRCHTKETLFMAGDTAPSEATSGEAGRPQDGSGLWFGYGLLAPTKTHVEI
Method: FIGS. 5A-5F show the profile of cross-reactivity for each of the five compounds (I′) to (V) (FIG. 5A: (II); FIG. 5B: (III); FIG. 5C: (V); FIG. 5D: (I′) and FIG. 5E: (IV)) against a panel of 75 different receptors that compose the CEREP panel (see text). The compounds were tested at a single concentration (10 μM), and the inhibition of binding (Y-axis of each histogram) for a known ligand to each of the 75 receptors is reported (−100% therefore represents a 2-fold increase in binding of the specific ligand in the presence of the test compound). All reactions were performed in duplicate, and the bars represent the mean (no estimate of the replicate error is shown to simplify the graphs). Only a 50% or greater inhibition (or stimulation) of binding (representing an ED50 below 10 μM for the interaction of the test compound with the particular receptor) was considered statistically and biologically significant in this screening assay. For the five compounds tested here, only one interaction (that of compound (II) with the NK2 receptor, marked by the arrowhead in FIG. 5A) was considered potentially significant, although even this interaction was weak (estimated ED50 5-10 μM).
Binding to non-target receptors was assessed using similar protocols, exploiting specific radioligands for each receptor which are well known in the art. […]

[4] = system: S. Typhinurium (TA102, TA98 and TA100); assay: AMES test, revertant colony formation; format: cell-based; details: at 5 mg/ml
Method: The five compounds were subjected to a standard AMES test to assess likely genotoxicity. Three His-auxotroph strains of S. Typhinurium (TA102, TA98 and TA100) were treated with each of the compounds at 5 concentrations (up to 5 mg/ml) in the presence and absence of S9 rat liver microsomal metabolising system. The number of revertant colonies was then determined by plating on trace-His minimal media.

[5] = Identification of the primary metabolites in pooled rat urine by LC-MS-MS; format: in vivo; details: single oral dose 3 mg/kg in 1% CMC, pooled urine over 24 hrs, qualitative, 3 mg/kg
Method: Urine was collected from rats exposed to a single oral dose (3 mg/kg in 1% CMC) of each compound over a 24 hour period in metabolic cages. The pooled urine sample was then subjected to full scan mass spectral analysis, using the same LC-MS conditions as described in example 1 above. Further MS-MS analysis of the product ions was then performed, and likely fragmentations/re-arrangements assigned from the publicly available Metabolite ID database.
For the major metabolites, the assigned structures were confirmed by synthesis of authentic samples, using methods well known in the art, which were subject to LC-MS-MS analysis under the same conditions as the urine samples.
Note that metabolite ID studies provide only qualitative estimates of the relative amounts of the different metabolites present, and separately validated assays with appropriate internal standards would be required to quantitate each metabolite species.

[6] = plasma, averaged across three rats
[7] = plasma, iv, 1 mg/kg, averaged across three rats

O=C1NCCCC[C@@H]1NC(=O)C12CC3CC(CC(Cl)(C3)C1)C2 [(VIII)]
degradation compared to a no NADPH blank run [1]: less than 10%
clearance, fold higher than (I′) [2]: more than 20 fold
oral bioavailability [2]: no detectable oral bioavailability whatsoever
level of analyte in plasma following oral dosing ([2]; all time-points, limit of quantitation ˜2 ng/ml): below the limit of quantitation
AUC(0-t) ([2]; blood, single oral dose 3 mg/kg in 1% CMC, Tables 7-9, read-out: Exposure (min · ng/ml), oral exposure AUC 0-t (converted)): < 1.67 ng·h/mL
bioavailability [2, 6]: < 1%
clearance [2, 7]: 62.8 mL/min/kg
Vd [2, 7]: 0.7 L/kg
half-life [2, 7]: 15 min
hydrolysis to (V) [3]: less than 2%

O=C1NCCCC[C@@H]1NC(=O)C12CC3CC(CC(C3)C1)C2 [Compound (II), 3-(adamantane-1-carbonylamino)-caprolactam]
bioavailability [2, 6]: < 1%
Vd [2, 7]: 0.8 L/kg
half-life [2, 7]: 16 min
IC50 (NK2 receptor): 5 to 10 µM
effect on bacterial lawn growth [4]: inhibition of bacterial lawn growth
major metabolites / route of metabolism detected in urine [5]: cytochrome P450-mediated hydroxylation; also recorded: rapidly converted to (V) in vivo
